{"source": "paper PMC11996864", "about": "“A small-molecule inhibitor of BCL10-MALT1 interaction abrogates progression of diffuse large B cell lymphoma” (The Journal of Clinical Investigation, 2025)", "key": {"INSR": {"molecular_target": "T1, INSR (Homo sapiens, UniProt P06213)", "T1 construct": "Eurofins SAFETYscan78", "T1 sequence (P06213 28-1382)": "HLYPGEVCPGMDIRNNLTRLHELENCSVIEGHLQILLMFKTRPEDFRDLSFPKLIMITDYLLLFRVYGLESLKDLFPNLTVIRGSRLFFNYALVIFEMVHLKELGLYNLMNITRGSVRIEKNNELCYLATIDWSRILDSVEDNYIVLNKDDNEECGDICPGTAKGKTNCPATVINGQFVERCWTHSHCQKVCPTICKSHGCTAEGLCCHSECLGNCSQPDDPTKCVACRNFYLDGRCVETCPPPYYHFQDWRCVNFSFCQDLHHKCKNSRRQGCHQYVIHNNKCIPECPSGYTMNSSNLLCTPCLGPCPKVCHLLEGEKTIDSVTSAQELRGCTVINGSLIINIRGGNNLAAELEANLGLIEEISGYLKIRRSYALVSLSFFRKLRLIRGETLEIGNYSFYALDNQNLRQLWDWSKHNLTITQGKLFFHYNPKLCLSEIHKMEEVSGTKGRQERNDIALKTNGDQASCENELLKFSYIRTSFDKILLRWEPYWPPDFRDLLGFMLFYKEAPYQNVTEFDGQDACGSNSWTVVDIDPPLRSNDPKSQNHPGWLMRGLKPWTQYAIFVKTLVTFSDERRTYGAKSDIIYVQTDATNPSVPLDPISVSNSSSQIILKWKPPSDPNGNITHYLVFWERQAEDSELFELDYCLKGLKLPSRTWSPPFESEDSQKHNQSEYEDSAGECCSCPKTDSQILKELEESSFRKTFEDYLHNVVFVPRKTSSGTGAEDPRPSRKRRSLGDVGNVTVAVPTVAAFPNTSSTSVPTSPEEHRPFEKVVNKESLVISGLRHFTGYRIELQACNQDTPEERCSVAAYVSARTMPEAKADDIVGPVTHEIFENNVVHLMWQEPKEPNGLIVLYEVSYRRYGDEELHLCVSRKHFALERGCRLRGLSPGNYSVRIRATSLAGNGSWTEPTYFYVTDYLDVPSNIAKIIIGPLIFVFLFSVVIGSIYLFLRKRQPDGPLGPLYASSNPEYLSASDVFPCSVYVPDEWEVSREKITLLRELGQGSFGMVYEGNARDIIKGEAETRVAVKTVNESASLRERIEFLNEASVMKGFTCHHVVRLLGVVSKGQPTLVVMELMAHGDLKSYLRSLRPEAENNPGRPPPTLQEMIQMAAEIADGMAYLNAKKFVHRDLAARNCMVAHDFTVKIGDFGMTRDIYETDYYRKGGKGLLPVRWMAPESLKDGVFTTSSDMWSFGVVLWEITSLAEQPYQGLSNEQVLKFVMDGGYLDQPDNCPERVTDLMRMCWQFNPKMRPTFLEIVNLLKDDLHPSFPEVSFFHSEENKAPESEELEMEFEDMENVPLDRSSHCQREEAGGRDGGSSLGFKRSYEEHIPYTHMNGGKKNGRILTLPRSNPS", "test": "SAFETYscan78 off-target screen", "conditions": "off-target panel; read-out: EC50 or IC50, INSR", "excerpt": "(§1) We also tested for possible adverse actions of M1i-124 on cytochrome P450 (CYP) enzymes that might limit its use in vivo. The CYP family of enzymes are responsible for phase I metabolism of many drugs and endogenous substances, and their inhibition can lead to unanticipated toxicities. […] To further test for potential off-target effects of M1i-124, we conducted an in vitro safety pharmacology profiling screen that measures the ability of a candidate compound to inhibit 78 key GPCRs, ion channels, nuclear hormone receptors, neurotransmitter transporters, kinases, and non-kinase enzymes. […]\n(§2) cological profile for M1i-124. EC50 or I C50 f or act i vi t y agai nst sel ect GPCRs, i on channel s, nucl ear hor mone r eceptor s, ki nases, and neur otr ansmi tter tr anspor ter s i n an off-target activity screen of M1i-124 (Eurofins SAFETYscan78). When unmeasurable, the EC50 or IC50 for an indicated target is listed as >10 […]\n(§3) (1 picture or pasted object on this page, not shown here)"}, "ROCK1": {"molecular_target": "T2, ROCK1 (Homo sapiens, UniProt Q13464)", "T2 construct": "Eurofins SAFETYscan78", "T2 sequence (Q13464 whole entry)": "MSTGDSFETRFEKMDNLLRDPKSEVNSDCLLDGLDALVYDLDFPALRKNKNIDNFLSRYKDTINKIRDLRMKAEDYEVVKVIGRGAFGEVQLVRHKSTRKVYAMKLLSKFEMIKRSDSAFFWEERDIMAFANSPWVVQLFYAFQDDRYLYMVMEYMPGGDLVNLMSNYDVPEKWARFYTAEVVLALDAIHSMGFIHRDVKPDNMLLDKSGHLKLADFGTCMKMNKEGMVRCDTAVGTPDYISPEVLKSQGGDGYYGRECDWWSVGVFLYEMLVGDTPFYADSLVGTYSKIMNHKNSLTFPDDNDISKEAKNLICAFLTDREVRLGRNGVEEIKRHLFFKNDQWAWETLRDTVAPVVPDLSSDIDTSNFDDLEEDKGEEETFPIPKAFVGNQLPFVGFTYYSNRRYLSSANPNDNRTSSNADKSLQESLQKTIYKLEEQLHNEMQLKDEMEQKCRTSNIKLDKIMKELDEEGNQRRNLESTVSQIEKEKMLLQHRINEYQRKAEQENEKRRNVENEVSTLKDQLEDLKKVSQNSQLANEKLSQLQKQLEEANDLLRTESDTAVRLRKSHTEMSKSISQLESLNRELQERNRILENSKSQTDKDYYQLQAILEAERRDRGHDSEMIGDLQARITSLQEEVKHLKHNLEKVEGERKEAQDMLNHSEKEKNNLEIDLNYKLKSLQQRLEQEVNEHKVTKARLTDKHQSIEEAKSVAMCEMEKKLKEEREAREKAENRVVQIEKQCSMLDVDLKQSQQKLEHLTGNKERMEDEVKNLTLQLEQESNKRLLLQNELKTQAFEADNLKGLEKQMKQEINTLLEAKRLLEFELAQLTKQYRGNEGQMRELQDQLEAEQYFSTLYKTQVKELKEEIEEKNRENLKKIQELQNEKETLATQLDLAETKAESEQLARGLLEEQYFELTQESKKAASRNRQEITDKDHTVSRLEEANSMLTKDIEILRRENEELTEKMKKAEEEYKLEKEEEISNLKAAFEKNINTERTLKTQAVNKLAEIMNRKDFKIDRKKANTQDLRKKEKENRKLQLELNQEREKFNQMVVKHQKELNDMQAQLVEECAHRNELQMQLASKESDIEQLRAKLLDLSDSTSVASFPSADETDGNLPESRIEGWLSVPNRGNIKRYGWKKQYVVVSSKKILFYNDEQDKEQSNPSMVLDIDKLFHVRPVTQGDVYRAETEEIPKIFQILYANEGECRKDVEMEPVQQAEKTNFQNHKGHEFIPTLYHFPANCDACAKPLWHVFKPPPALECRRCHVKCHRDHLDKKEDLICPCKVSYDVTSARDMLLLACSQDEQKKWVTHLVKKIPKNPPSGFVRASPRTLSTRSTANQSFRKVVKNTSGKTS", "test": "SAFETYscan78 off-target screen", "conditions": "off-target panel; read-out: EC50 or IC50, ROCK1", "excerpt": "as §1, §2, §3"}, "hERG": {"molecular_target": "T3, hERG (Homo sapiens, UniProt Q12809)", "T3 construct": "Eurofins SAFETYscan78", "T3 sequence (Q12809 whole entry)": "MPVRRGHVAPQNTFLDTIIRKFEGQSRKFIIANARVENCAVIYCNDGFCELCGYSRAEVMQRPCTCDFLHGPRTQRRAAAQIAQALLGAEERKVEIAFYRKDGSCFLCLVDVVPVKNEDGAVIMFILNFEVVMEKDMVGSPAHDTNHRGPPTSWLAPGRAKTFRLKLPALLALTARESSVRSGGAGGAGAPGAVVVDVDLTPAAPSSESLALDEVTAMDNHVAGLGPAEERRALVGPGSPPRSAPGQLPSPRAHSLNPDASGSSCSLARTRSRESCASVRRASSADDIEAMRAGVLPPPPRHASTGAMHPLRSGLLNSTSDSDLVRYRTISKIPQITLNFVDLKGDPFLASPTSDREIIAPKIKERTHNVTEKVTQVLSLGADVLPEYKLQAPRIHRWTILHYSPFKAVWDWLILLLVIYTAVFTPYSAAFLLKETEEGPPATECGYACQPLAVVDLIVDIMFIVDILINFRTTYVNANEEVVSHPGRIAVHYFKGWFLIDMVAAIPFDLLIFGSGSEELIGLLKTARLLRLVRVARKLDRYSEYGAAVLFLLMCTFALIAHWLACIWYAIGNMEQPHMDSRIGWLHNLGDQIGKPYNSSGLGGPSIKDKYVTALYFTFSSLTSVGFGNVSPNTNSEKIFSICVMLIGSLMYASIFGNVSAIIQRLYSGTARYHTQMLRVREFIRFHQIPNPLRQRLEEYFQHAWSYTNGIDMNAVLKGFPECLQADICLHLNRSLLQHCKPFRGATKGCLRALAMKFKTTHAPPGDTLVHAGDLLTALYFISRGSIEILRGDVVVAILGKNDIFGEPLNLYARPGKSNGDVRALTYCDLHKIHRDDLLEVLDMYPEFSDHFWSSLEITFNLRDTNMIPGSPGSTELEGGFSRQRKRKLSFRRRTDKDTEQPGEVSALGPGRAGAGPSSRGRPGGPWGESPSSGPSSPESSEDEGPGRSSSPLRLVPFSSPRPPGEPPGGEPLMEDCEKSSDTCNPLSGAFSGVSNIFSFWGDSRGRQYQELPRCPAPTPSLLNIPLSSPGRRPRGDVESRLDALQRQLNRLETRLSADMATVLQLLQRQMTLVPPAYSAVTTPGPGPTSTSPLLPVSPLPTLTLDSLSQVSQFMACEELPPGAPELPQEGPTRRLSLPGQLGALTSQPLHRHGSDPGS", "test": "SAFETYscan78 off-target screen", "conditions": "off-target panel; read-out: EC50 or IC50, hERG", "excerpt": "as §1, §2, §3"}, "TMD8 cells": {"test_system": "TMD8 cells", "test": "CellTiter-Glo ATP viability", "assay_type": "cell-based, human", "experimental": "(§4) Cell proliferation, viability, and apoptosis assays. […]\n(§5) Fluorescent Intensity (MFI) was analyzed by FlowJo (version 10.8.0, BD). CellTiter-glo luminescence assay (Promega, Cat# G7570) was used to quantify ATP levels as a surrogate marker of metabolic viability in DLBCL cells treated with compounds for 6-8 days. Annexin V Alexa 488 (ThermoFisher Scientific, Cat# A13201) and SYTOX Blue Dead Cell (ThermoFisher Scientific, Cat# S34857) stains were used to detect apoptosis in DLBCL cells after treatment with 1 µM compounds for 8 days in TMD8 and OCI-Ly1 and for 5 days in OCI-Ly3 cells, then analyzed with flow cytometry. The percentages of cells in early and late apoptosis were combined for quantification. For CellTrace Violet, CellTiter-glo, and Annexin V apoptosis assays, cell were cultured in media with 50% of the usual serum. […]"}, "OCI-Ly1 cells": {"test_system": "OCI-Ly1 cells", "test": "CellTiter-Glo ATP viability", "assay_type": "cell-based, human", "experimental": "as §4, §5"}, "[1]": {"test_system": "all CYP enzymes tested (CYP1A2, CYP2C9, CYP2C19, CYP2D6, CYP3A4)", "test": "Reversible CYP inhibition, all enzymes tested", "assay_type": "in vitro ADME", "conditions": "both sexes, human, pooled human liver microsomes; read-out: IC50 against all CYP enzymes tested", "experimental": "Pharmacokinetic and cytochrome P450 inhibition studies. Studies were performed with the assistance of Touchstone Biosciences (Plymouth Meeting, Pennsylvania). […]\nFor reversible CYP […]\ninhibition studies, different concentrations of M1i-124 were added to 0.2 mg/ml pooled, mixed-gender human liver microsomes (HLM). Each CYP450 isoform-specific probe substrate (CYP1A2, CYP2C9, CYP2C19, CYP2D6, and CYP3A4) was incubated individually with HLM and M1i-124 or corresponding positive control inhibitor (Phenacetin, Tolbutamaide, S-Mephenytoin, Dextromethorphan, Midazolam, and Testosterone). Samples were analyzed for metabolites of the probe substrates by LC-MS/MS at each of the test compound concentrations. A decrease in the formation of the metabolites compared to vehicle control was used to calculate the […]"}, "TMD8 tumor xenografts [2]": {"test_system": "TMD8 tumor xenografts", "test": "NF-κB target gene mRNA in TMD8 tumor xenografts, qRT-PCR", "assay_type": "in vivo, mouse", "experimental": "Total RNA extraction from the TMD8 tumor xenografts was performed using 80% TRIzol Reagent (Fisher Scientific, Cat# 15596026) and 20% Chloroform for tissue solubilization. After centrifugation, the supernatant was mixed with equal volume of 70% ETOH followed by RNA isolation using the RNeasy Plus Mini\nKit. RNA was transcribed into cDNA using High-Capacity cDNA Reverse Transcription Kit (Applied Biosystems, Cat# 4368814) according to manufacturer’s instructions. RT-PCR was performed using TaqMan Universal PCR Master Mix (Applied Biosystems, Cat# 4304437) and run on a StepOnePlus Real-Time PCR machine (Applied Biosystems). The following probes from ThermoFisher Scientific were used for qRT-PCR: IL2 TaqMan probe Hs00174114, IL6 TaqMan"}, "TMD8 tumor xenografts [3]": {"test_system": "TMD8 tumor xenografts", "test": "TMD8 xenograft in NOD-SCID mice", "assay_type": "in vivo, mouse", "excerpt": "TMD8 cells were engrafted into 8-week-old female NOD.CB17-Prkdc^scid/J (NOD-SCID) mice from The Jackson Laboratory by subcutaneous injection of 10 × 10^6 cells resuspended in 50% Cultrex Basement Membrane Extract (R&D Systems, catalog 3632-010-02) into the right flank. OCI-Ly3 cells were engrafted into 5-week-old female NOD.Cg-Prkdc^scid Il2rg^tm1Wjl/SzJ (NSG) mice from The Jackson Laboratory by subcutaneous injection of 2.5 × 10^6 cells resuspended in Cultrex as above. OCI-Ly1 cells were engrafted into 6.5-week-old female NSG mice from The Jackson Laboratory by subcutaneous injection of 20 × 10^6 cells resuspended in Cultrex as above. For all xenograft models, when tumors reached an average volume of 100 mm^3, mice were randomized to receive M1i-124 (50 mg/kg i.p. per day), or equivalent volume of DMSO vehicle (50 μL i.p. per day). […] Tumor size was measured 3 times a week using a caliper and calculated using the formula (smallest diameter^2 × largest diameter)/2. Mice were sacrificed 24 hours after the last injection. Mice were sacrificed when the largest tumors reached 2,500 mm^3. For TMD8 xenograft experiments, tumors and various organs, including lung, heart, liver, and kidney, were collected and fixed in 10% buffered formalin, embedded in FFPE blocks, sectioned, and stained with H&E. Sections were evaluated by a board-certified pathologist."}, "[4]": {"conditions": "24-hour time point, result in words"}}, "note": "Values joined by “and” are separate entries in the source; they are usually repeats but may differ in a detail not shown here. Equal entries are not always repeated. “Also recorded” adds a separate entry of the source.", "data": [{"compound": "O=S(=O)(NCc1ccc2c(c1)OCO2)c1ccc(Cc2ccc(S(=O)(=O)NCc3ccc4c(c3)OCO4)cc2)cc1", "note": "[M1i-124]", "values": [{"measurement": "IC50", "setting": "INSR", "result": "> 10", "unit": "µM"}, {"measurement": "IC50", "setting": "ROCK1", "result": "> 10", "unit": "µM"}, {"measurement": "IC50", "setting": "hERG", "result": "> 10", "unit": "µM"}, {"measurement": "IC50", "setting": "TMD8 cells; Homo sapiens, TMD8 cells, read-out: 50% cytotoxic concentration", "result": "~0.2", "unit": "µM"}, {"measurement": "viability of TMD8 cells", "setting": "TMD8 cells; result in words", "result": "loss of cell viability; also recorded: dose-dependent decrease in viability"}, {"measurement": "CellTiter-Glo viability (% of control)", "setting": "OCI-Ly1 cells; OCI-Ly1, M1i-124 (µM) 0.02", "result": "107.27% and 98.9873% and 92.7867%"}, {"measurement": "CellTiter-Glo viability (% of control)", "setting": "OCI-Ly1 cells; OCI-Ly1, M1i-124 (µM) 0.05", "result": "97.4522% and 115.002% and 102.297%"}, {"measurement": "CellTiter-Glo viability (% of control)", "setting": "OCI-Ly1 cells; OCI-Ly1, M1i-124 (µM) 0.1", "result": "110.647% and 95.1607% and 118.153%"}, {"measurement": "CellTiter-Glo viability (% of control)", "setting": "OCI-Ly1 cells; OCI-Ly1, M1i-124 (µM) 0.2", "result": "107.42% and 81.8681% and 81.0306%"}, {"measurement": "CellTiter-Glo viability (% of control)", "setting": "OCI-Ly1 cells; OCI-Ly1, M1i-124 (µM) 0.5", "result": "117.286% and 98.6082% and 99.6544%"}, {"measurement": "CellTiter-Glo viability (% of control)", "setting": "OCI-Ly1 cells; OCI-Ly1, M1i-124 (µM) 1", "result": "125.229% and 113.171% and 94.1756%"}, {"measurement": "CellTiter-Glo viability (% of control)", "setting": "OCI-Ly1 cells; OCI-Ly1, M1i-124 (µM) 2", "result": "125.761% and 123.625% and 96.808%"}, {"measurement": "CellTiter-Glo viability (% of control)", "setting": "OCI-Ly1 cells; OCI-Ly1, M1i-124 (µM) 5", "result": "145.729% and 138.657% and 113.755%"}, {"measurement": "IC50", "setting": "[1]", "result": "> 10", "unit": "µM"}, {"measurement": "IRF4 mRNA level in tumors", "setting": "TMD8 tumor xenografts [2]; [4]", "result": "no effect"}, {"measurement": "NFKBID mRNA level in tumors", "setting": "TMD8 tumor xenografts [2]; [4]", "result": "no effect"}, {"measurement": "NFKBIZ mRNA level in tumors", "setting": "TMD8 tumor xenografts [2]; [4]", "result": "did reduce"}, {"measurement": "TNFA mRNA level in tumors", "setting": "TMD8 tumor xenografts [2]; [4]", "result": "did reduce"}, {"measurement": "IL10 mRNA levels in tumors", "setting": "TMD8 tumor xenografts [2]; 24 hours after last dose, result in words", "result": "not affected"}, {"measurement": "IL6 mRNA level in tumors", "setting": "TMD8 tumor xenografts [2]; 24 hours after last dose, vs DMSO, result in words", "result": "significant decrease"}, {"measurement": "Gene expression by RT-PCR (normalized)", "setting": "TMD8 tumor xenografts [2]; NFKBID", "result": "0.81 and 0.72 and 0.56 and 0.88 and 1.03 and 0.82 and 0.76 and 0.92"}, {"measurement": "growth of TMD8 tumor xenografts (tumor volume, terminal tumor weight)", "setting": "TMD8 tumor xenografts [3]; 50 mg/kg i.p. per day, 12 days, vs DMSO, result in words", "result": "significantly suppressed"}, {"measurement": "body weight of xenograft mice", "setting": "TMD8 tumor xenografts [3]; at conclusion of experiment, result in words", "result": "slightly lower body weights"}, {"measurement": "microscopic evaluation of major organs", "setting": "TMD8 tumor xenografts [3]; heart, lung, liver, adrenal, kidney, result in words", "result": "no signs of histologic abnormality"}, {"measurement": "Terminal body weights", "setting": "TMD8 tumor xenografts [3]; individual mice", "result": "17.69 g and 19.26 g and 19.45 g and 20.17 g and 20.3 g and 20.4 g and 20.6 g and 20.42 g"}, {"measurement": "clinical signs during treatment", "setting": "TMD8 tumor xenografts [3]; result in words", "result": "No abnormal clinical signs or indicators of adverse reaction were observed"}]}]}
